Tests used:
Japanese bulrush = assay: Test Example 2: herbicidal activity, application during weed generation under submerged conditions (Table 17, symbol B); format: in vivo, Japanese bulrush (Schoenoplectus juncoides); settings: application during weed generation, submerged conditions
Outline: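 Wagner pot, alluvial soil, 4 cm flood; mixed sowing of all species; greenhouse 25° C.–30° C. Emulsifiable formulation, water-diluted to predetermined dose, applied to paddy water at 1–2 leaf stage. Effect rated at 3 wk using the earlier test's scoring criteria.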

Chinese sprangletop = assay: Test Example 3: herbicidal effect by foliage application, Wagner pot (Table 18, symbol D); format: in vivo, chinese sprangletop (Leptochloa chinensis)
Outline: (§1)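 Plants were sown in alluvial soil held under 0.1–0.5 cm standing water and grown 14 days in a greenhouse at 25–30 °C. An emulsifiable formulation, water-diluted to the set dose, was then sprayed onto the foliage, and effects were scored three weeks later using previously defined criteria.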

rice flat sedge = assay: Test Example 3: herbicidal effect by foliage application, Wagner pot (Table 18, symbol E); format: in vivo, rice flat sedge (Cyperus iria)
Outline: as §1

green foxtail = assay: Test Example 4: herbicidal effect by soil treatment (Table 19, symbol G); format: in vivo, green foxtail (Setaria viridis)
Outline: (§2)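 Applied as a water-diluted emulsion, the compound was sprayed onto soil covering newly sown seeds. Evaluation came three weeks after application, in a greenhouse held at 25° C. to 30° C.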

barnyard grass [1] = assay: Test Example 4: herbicidal effect by soil treatment (Table 19, symbol H); format: in vivo, barnyard grass (Echinochloa crus-galli)
Outline: as §2

blackgrass [2] = assay: Test Example 4: herbicidal effect by soil treatment (Table 19, symbol J); format: in vivo, blackgrass (Alopecurus myosuroides)
Outline: as §2

Italian ryegrass [3] = assay: Test Example 4: herbicidal effect by soil treatment (Table 19, symbol K); format: in vivo, Italian ryegrass (Lolium multiflorum)
Outline: as §2

lambsquarters [4] = assay: Test Example 4: herbicidal effect by soil treatment (Table 19, symbol O); format: in vivo, lambsquarters (Chenopodium album)
Outline: as §2

barnyard grass [5] = assay: Test Example 5: herbicidal effect by foliage application, plastic box (Table 20, symbol H); format: in vivo, barnyard grass (Echinochloa crus-galli); settings: foliage application, three weeks after application
Outline: (§3)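 Sow seeds spot-wise in sterilized diluvial soil; cover with ~1.5 cm soil. Grow 14 days in greenhouse, 25° C. to 30° C. Spray foliage with emulsion diluted to predetermined amount. Rate effect after 3 weeks.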

wild oat = assay: Test Example 5: herbicidal effect by foliage application, plastic box (Table 20, symbol I); format: in vivo, wild oat (Avena fatua); settings: foliage application, three weeks after application
Outline: as §3

blackgrass [6] = assay: Test Example 5: herbicidal effect by foliage application, plastic box (Table 20, symbol J); format: in vivo, blackgrass (Alopecurus myosuroides); settings: foliage application, three weeks after application
Outline: as §3

Italian ryegrass [7] = assay: Test Example 5: herbicidal effect by foliage application, plastic box (Table 20, symbol K); format: in vivo, Italian ryegrass (Lolium multiflorum); settings: foliage application, three weeks after application
Outline: as §3

windgrass = assay: Test Example 5: herbicidal effect by foliage application, plastic box (Table 20, symbol L); format: in vivo, windgrass (Apera spica-venti); settings: foliage application, three weeks after application
Outline: as §3

velvetleaf = assay: Test Example 5: herbicidal effect by foliage application, plastic box (Table 20, symbol M); format: in vivo, velvetleaf (Abutilon theophrasti); settings: foliage application, three weeks after application
Outline: as §3

lambsquarters [8] = assay: Test Example 5: herbicidal effect by foliage application, plastic box (Table 20, symbol O); format: in vivo, lambsquarters (Chenopodium album); settings: foliage application, three weeks after application
Outline: as §3

persian speedwell = assay: Test Example 5: herbicidal effect by foliage application, plastic box (Table 20, symbol R); format: in vivo, Persian speedwell (Veronica persica); settings: foliage application, three weeks after application
Outline: as §3

[9] = amount of applied herbicide 390 g/ha
[10] = amount of applied herbicide 320 g/ha

SMILES | herbicidal effect rating, B: Japanese bulrush (Japanese bulrush; AAH 320 g/ha) | Herbicidal effect on D (Chinese sprangletop), foliage application (Chinese sprangletop; [10]) | Herbicidal effect on E (rice flat sedge), foliage application (rice flat sedge; [10]) | G: green foxtail, herbicidal effect grade (green foxtail; [10]) | H: barnyard grass, herbicidal effect grade (barnyard grass [1]; [10]) | J: blackgrass, herbicidal effect grade (blackgrass [2]; [10]) | K: Italian ryegrass, herbicidal effect grade (Italian ryegrass [3]; [10]) | O: lambsquarters, herbicidal effect grade (lambsquarters [4]; [10]) | herbicidal effect on barnyard grass (H) (barnyard grass [5]; 320 g/ha) | herbicidal effect on wild oat (I) (wild oat; 320 g/ha) | herbicidal effect on blackgrass (J) (blackgrass [6]; 320 g/ha) | herbicidal effect on Italian ryegrass (K) (Italian ryegrass [7]; 320 g/ha) | herbicidal effect on windgrass (L) (windgrass; 320 g/ha) | herbicidal effect on velvetleaf (M) (velvetleaf; 320 g/ha) | herbicidal effect on lambsquarters (O) (lambsquarters [8]; 320 g/ha) | herbicidal effect on persian speedwell (R) (persian speedwell; 320 g/ha) | other results
CCCC(=O)Oc1c(C)nn(C)c(=O)c1-c1c(-c2ccc(F)cc2)oc2ccc(C)cc12 [9-005] |  |  |  |  |  |  |  |  |  |  |  |  |  |  |  |  | herbicidal effect rating, B: Japanese bulrush (Japanese bulrush; AAH 390 g/ha): 1 (Herbicidal rate of 5% or more and less than 20%); Herbicidal effect on D (Chinese sprangletop), foliage application (Chinese sprangletop; [9]): 0 (Herbicidal rate of 5% or less (almost no effect)); Herbicidal effect on E (rice flat sedge), foliage application (rice flat sedge; [9]): 2 (Herbicidal rate of 20% or more and less than 40%); G: green foxtail, herbicidal effect grade (green foxtail; [9]): 0 (Herbicidal rate of 5% or less (almost no effect)); H: barnyard grass, herbicidal effect grade (barnyard grass [1]; [9]): 0 (Herbicidal rate of 5% or less (almost no effect)); J: blackgrass, herbicidal effect grade (blackgrass [2]; [9]): 0 (Herbicidal rate of 5% or less (almost no effect)); K: Italian ryegrass, herbicidal effect grade (Italian ryegrass [3]; [9]): 0 (Herbicidal rate of 5% or less (almost no effect)); O: lambsquarters, herbicidal effect grade (lambsquarters [4]; [9]): 3 (Herbicidal rate of 40% or more and less than 70%); herbicidal effect on barnyard grass (H) (barnyard grass [5]; 390 g/ha): 0 (Herbicidal rate of 5% or less (almost no effect)); herbicidal effect on wild oat (I) (wild oat; 390 g/ha): 0 (Herbicidal rate of 5% or less (almost no effect)); herbicidal effect on blackgrass (J) (blackgrass [6]; 390 g/ha): 0 (Herbicidal rate of 5% or less (almost no effect)); herbicidal effect on Italian ryegrass (K) (Italian ryegrass [7]; 390 g/ha): 4 (Herbicidal rate of 70% or more and less than 90%); herbicidal effect on windgrass (L) (windgrass; 390 g/ha): 0 (Herbicidal rate of 5% or less (almost no effect)); herbicidal effect on velvetleaf (M) (velvetleaf; 390 g/ha): 5 (Herbicidal rate of 90% or more (almost completely withered)); herbicidal effect on lambsquarters (O) (lambsquarters [8]; 390 g/ha): 3 (Herbicidal rate of 40% or more and less than 70%); herbicidal effect on persian speedwell (R) (persian speedwell; 390 g/ha): 5 (Herbicidal rate of 90% or more (almost completely withered))
COc1ccc(-c2oc3ccc(C)cc3c2-c2c(O)c(C)nn(C)c2=O)cc1 [9-007] | 5 (Herbicidal rate of 90% or more (almost completely withered)) | 1 (Herbicidal rate of 5% or more and less than 20%) | 5 (Herbicidal rate of 90% or more (almost completely withered)) | 3 (Herbicidal rate of 40% or more and less than 70%) | 3 (Herbicidal rate of 40% or more and less than 70%) | 4 (Herbicidal rate of 70% or more and less than 90%) | 5 (Herbicidal rate of 90% or more (almost completely withered)) | 4 (Herbicidal rate of 70% or more and less than 90%) | 4 (Herbicidal rate of 70% or more and less than 90%) | 4 (Herbicidal rate of 70% or more and less than 90%) | 4 (Herbicidal rate of 70% or more and less than 90%) | 5 (Herbicidal rate of 90% or more (almost completely withered)) | 4 (Herbicidal rate of 70% or more and less than 90%) | 5 (Herbicidal rate of 90% or more (almost completely withered)) | 5 (Herbicidal rate of 90% or more (almost completely withered)) | 5 (Herbicidal rate of 90% or more (almost completely withered)) | 
CCCC(=O)Oc1c(C)nn(C)c(=O)c1-c1c(-c2ccc(OC)cc2)oc2ccc(C)cc12 [9-008] | 5 (Herbicidal rate of 90% or more (almost completely withered)) | 3 (Herbicidal rate of 40% or more and less than 70%) | 5 (Herbicidal rate of 90% or more (almost completely withered)) | 2 (Herbicidal rate of 20% or more and less than 40%) | 3 (Herbicidal rate of 40% or more and less than 70%) | 0 (Herbicidal rate of 5% or less (almost no effect)) | 4 (Herbicidal rate of 70% or more and less than 90%) | 4 (Herbicidal rate of 70% or more and less than 90%) | 3 (Herbicidal rate of 40% or more and less than 70%) | 3 (Herbicidal rate of 40% or more and less than 70%) | 1 (Herbicidal rate of 5% or more and less than 20%) | 5 (Herbicidal rate of 90% or more (almost completely withered)) | 0 (Herbicidal rate of 5% or less (almost no effect)) | 5 (Herbicidal rate of 90% or more (almost completely withered)) | 4 (Herbicidal rate of 70% or more and less than 90%) | 5 (Herbicidal rate of 90% or more (almost completely withered)) | 
CCOc1ccc(-c2oc3ccc(F)cc3c2-c2c(O)c(C)nn(C)c2=O)cc1 [9-021] | 3 (Herbicidal rate of 40% or more and less than 70%) | 3 (Herbicidal rate of 40% or more and less than 70%) | 5 (Herbicidal rate of 90% or more (almost completely withered)) | 4 (Herbicidal rate of 70% or more and less than 90%) | 4 (Herbicidal rate of 70% or more and less than 90%) | 4 (Herbicidal rate of 70% or more and less than 90%) | 5 (Herbicidal rate of 90% or more (almost completely withered)) | 4 (Herbicidal rate of 70% or more and less than 90%) | 3 (Herbicidal rate of 40% or more and less than 70%) | 4 (Herbicidal rate of 70% or more and less than 90%) | 1 (Herbicidal rate of 5% or more and less than 20%) | 5 (Herbicidal rate of 90% or more (almost completely withered)) | 0 (Herbicidal rate of 5% or less (almost no effect)) | 5 (Herbicidal rate of 90% or more (almost completely withered)) | 3 (Herbicidal rate of 40% or more and less than 70%) | 5 (Herbicidal rate of 90% or more (almost completely withered)) | 
CCCOc1ccc(-c2oc3ccc(F)cc3c2-c2c(O)c(C)nn(C)c2=O)cc1 [9-023] | 3 (Herbicidal rate of 40% or more and less than 70%) | 3 (Herbicidal rate of 40% or more and less than 70%) | 5 (Herbicidal rate of 90% or more (almost completely withered)) | 5 (Herbicidal rate of 90% or more (almost completely withered)) | 5 (Herbicidal rate of 90% or more (almost completely withered)) | 0 (Herbicidal rate of 5% or less (almost no effect)) | 5 (Herbicidal rate of 90% or more (almost completely withered)) | 5 (Herbicidal rate of 90% or more (almost completely withered)) | 5 (Herbicidal rate of 90% or more (almost completely withered)) | 3 (Herbicidal rate of 40% or more and less than 70%) | 4 (Herbicidal rate of 70% or more and less than 90%) | 5 (Herbicidal rate of 90% or more (almost completely withered)) | 4 (Herbicidal rate of 70% or more and less than 90%) | 5 (Herbicidal rate of 90% or more (almost completely withered)) | 5 (Herbicidal rate of 90% or more (almost completely withered)) | 5 (Herbicidal rate of 90% or more (almost completely withered)) | 
